What was measured:
Pyrenophora teres = experiment: Activity against net blotch of barley caused by Pyrenophora teres, protective application; format: in vivo; details: 250 ppm, protective spray, assessed after 6 days, untreated plants 90% infected
Description: (§1) The active compounds were prepared as a stock solution with 25 mg of active compound which was made up to 10 ml using a mixture of acetone and/or DMSO and the emulsifier Uniperol® EL (wetting agent having emulsifying and dispersing action based on ethoxylated alkylphenols) in a volume ratio of solvent/emulsifier of 99 to 1.
(§2) The mixture was then made up with water to 100 ml. This stock solution was diluted with the solvent/emulsifier/water mixture described to the concentration of active compounds stated below.
Use Example 1—Activity Against Net blotch of Barley Caused by Pyrenophora teres, Protective Application
Leaves of potted barley seedlings of the cultivar “Hanna” were sprayed to runoff point with an aqueous suspension having the concentration of active compounds stated below. 24 hours after the spray coating had dried on, the test plants were inoculated with an aqueous spore suspension of Pyrenophora [syn. Drechslera]teres, the net blotch pathogen. The test plants were then placed in a greenhouse at temperatures between 20 and 24° C. and 95 to 100% relative atmospheric humidity. After 6 days, the extent of the development of the disease was determined visually in % infection of the entire leaf area.

Botrytis cinerea = experiment: Activity against gray mold on bell-pepper leaves caused by Botrytis cinerea, protective application; format: in vivo; details: 250 ppm, protective spray, assessed after 5 days, untreated plants 100% infected
Description: as §1, §2
Use Example 2—Activity Against Gray Mold on Bell-Pepper Leaves Caused by Botrytis cinerea, Protective Application
Bell-pepper seedlings of the cultivar “Neusiedler Ideal Elite” were, after 2 to 3 leaves were well developed, sprayed to runoff point with an aqueous suspension having the concentration of active compounds stated below. The next day, the treated plants were inoculated with a spore suspension of Botrytis cinerea which contained 1.7×10^6 spores/ml in a 2% aqueous biomold solution. The test plants were then placed in a dark acclimatized chamber at 22 to 24° C. and high atmospheric humidity. After 5 days, the extent of the fungal infection on the leaves could be determined visually in %.

CC1CCN(c2c(-c3c(Cl)cc(Cl)cc3Cl)c(C#N)nc3ncnn23)CC1 [Example 1, 5-cyano-6-(2,4,6-trichlorophenyl)-7-(4-methylpiperidinyl)-1,2,4-triazolo[1,5a]pyrimidine]
infection of the entire leaf area (Pyrenophora teres): about 1%
fungal infection on the leaves (Botrytis cinerea): about 7%
